Reference: PMC11933534, “Favipiravir induces HuNoV viral mutagenesis and infectivity loss with clinical improvement in immunocompromised patients” (Clinical Immunology (Orlando, Fla.), 2024)

Key:
Assay type in all cases: in vivo
zebrafish larvae = experiment: Toxicity analysis in zebrafish larvae
Procedure: (§1) First, compounds were dissolved in 100% DMSO (spectroscopy grade). To determine the correct dose for pericardial injections in zebrafish larvae of all compounds (i.e. favipiravir, tizoxanide and their 1:1 combination), a weight-dependent conversion was applied. For this purpose, the optimized and increased clinical dose of 400 mg favipiravir TDS and 200 mg tizoxanide BD was used. To ensure the weight-converted dose was not toxic for zebrafish larvae of 3 days post fertilization, a toxicity analysis was performed. […] The following parameters were investigated: touch response, morphology, posture, oedema, signs of necrosis, swim bladder and heartbeat.

Mx = experiment: Innate immune gene expression in HuNoV-infected zebrafish larvae: Mx; conditions: tizoxanide 4 ng; HuNoV GII.4 Sydney[P16]; day 2 pi; p = 0.0403
Procedure: (§2) To generate the cDNA, the ImProm-II Reverse Transcription System (Promega, Madison, WI, USA) was used. Briefly, a total of 1 μg (ca. 8 μL) of extracted RNA was added to 2 μL of random hexamers and incubated at 70 °C for 5 min, followed by 5 min at 4 °C. To this reaction mix a total volume of 30 μL containing 8 μL of Improm II 5× reaction buffer, 6 mM MgCl2, 0.5 mM deoxynucleoside triphosphate, 40 units of RNase inhibitor, 2 μL of Improm II reverse transcriptase, followed by an incubation at 25 °C for 5 min, 37 °C for 1 h, and 72 °C for 15 min. A qPCR was performed with 4 μL template cDNA using the SsoAdvanced Universal SYBR green supermix, 600 nM of forward and reverse primers for IRF-1, Mx and the housekeeping genes 18 s, β-actin, and ef1a. Primer sequences were as previously described [[65], [66], [67], [68]]. Cycling conditions were as follows; polymerase activation at 95 °C for 3 min followed by 40 cycles of denaturation at 95 °C for 15 s, annealing at 55 °C and extension at 72 °C for 30 s (Quantstudio 5, ThermoFisher Scientific, Waltham, MA, USA). Data was normalized to the housekeeping genes and compared to DMSO-injected zebrafish larvae infected with HuNoV to determine the fold induction of the expression, according to the Livak method.

IRF-1 = experiment: Innate immune gene expression in HuNoV-infected zebrafish larvae: IRF-1; conditions: tizoxanide 4 ng; HuNoV GII.4 Sydney[P16]; day 2 pi; p = 0.023
Procedure: as §2

HuNoV GII.4 Sydney[P16] = experiment: Antiviral treatment of HuNoV-infected zebrafish larvae (viral RNA by RT-qPCR)
Procedure: as §1
Zebrafish larvae were anesthetized and positioned as described previously, in short: zebrafish larvae of 3 days post fertilization were anesthetized and transferred to an agarose mold to position them on their dorsal side with the yolk facing upward. In every experiment, the injection needle was calibrated to ensure the precision of the injection volume. Microinjection was performed using an M3301R Manual Micromanipulator (WPI, Friedberg, Germany) and a FemtoJet 4i pressure microinjector (Eppendorf, Hamburg, Germany). Compound-treated zebrafish larvae received a 1 nL (1.5 nL in case of the combination treatment) injection of compound in the pericardial cavity, while negative control zebrafish were injected with an equal volume of DMSO. Subsequently, the zebrafish larvae received an injection of 3 nL virus in the yolk. After both injections, zebrafish larvae were transferred to 6-well plates with Danieau's solution and further maintained in an incubator with a 14/10 h light/dark cycle at 32 °C.
Zebrafish larvae were homogenized (Precellys 24, Bertin Technologies, Montigny-le-Bretonneux, France), the homogenates were cleared by centrifugation (5 min, 9000 g), and RNA was extracted using the Direct-zol RNA kit (Zymo Research, Irvine, CA, USA), according to the manufacturer's protocol. RNA levels were quantified with a one-step RT-qPCR (iTaq Universal Probes One-Step Kit, Bio-Rad, Hercules, CA, USA) as previously described.

For `O=C(Nc1ncc([N+](=O)[O-])s1)c1ccccc1O` [tizoxanide], which “Toxicity in the zebrafish larval model” value (zebrafish larvae; 25 ng favipiravir or 4 ng tizoxanide, drug administered alone) is on record?
The value was “did not show toxicity”.

What about the “Toxicity in the zebrafish larval model” value (zebrafish larvae; tizoxanide 6 ng) of the same compound?
Its value is “signs of toxicity, including heart oedema, necrosis and spine curvature”.

What about the “Fold increase in Mx expression vs untreated (DMSO) infected larvae” value (Mx) of the same compound?
The value was 9 fold.

What about the “Fold increase in IRF-1 expression vs untreated (DMSO) infected larvae” value (IRF-1) of the same compound?
The value was 4 fold.

What about the “Reduction of HuNoV replication” value (HuNoV GII.4 Sydney[P16]; monotherapy favipiravir 25 ng or tizoxanide 4 ng, in-house GII.4 Sydney[P16] stool sample, peak 2 dpi, p = 0.0006 and 0.001) of the same compound?
Its value is greater than 1 log10.

What about the “Effect on HuNoV replication” value (HuNoV GII.4 Sydney[P16]; tizoxanide 4 ng alone, inoculum SS A, p > 0.05) of the same compound?
Its value is “no significant effect”.
